# Test results reported in paper PMC7828447, “Design, Synthesis and Biological Evaluation of Arylpyridin-2-yl Guanidine Derivatives and Cyclic Mimetics as Novel MSK1 Inhibitors. An Application in an Asthma Model” (Molecules, 2021).
# What was measured:
# [1] = target: T1, human synthetic MSK1 (14-438-K, Millipore) (Homo sapiens, UniProt O75582); experiment: MSK1 enzymatic inhibition assay (Kinase-Glo luminescence); assay type: biochemical; settings: for inhibition at 1 µM: compound at 1 µM, read-out: MSK1 % Inhibition 1 µM; for inhibition at 1 µM / inhibition at 10 µM / IC50: ± Standard Deviation (n = 4); for inhibition at 10 µM: compound at 10 µM, read-out: MSK1 % Inhibition 10 µM; for IC50: 8 concentrations 0.03-100 µM, read-out: MSK1 IC50
# T1 construct: purchased Millipore 14-438-K
# Description: All results are summarized in Table 1, Table 2, Table 3, Table 4 and Table 5 and on Figure 4. […]
# An orthogonal luminescence-based assay Kinase-Glo® (Promega, Madison, WI, USA) was used to validate the hits, quantifying the amount of the remaining ATP in the solution following the kinase reaction. Enzymatic reactions were performed up to 4h at room temperature in presence of 3 µM ATP. All compounds were tested in quadruplicates at 1 µM and 10 µM. […] Luminescence was measured with EnVision Plate Reader (Perkin Elmer).
# [2] = tested on: IL-6 production; experiment: Inhibition of IL-6 production (ELISA) in IL-1β-stimulated primary human lung fibroblasts; settings: Homo sapiens, Fibroblast; for inhibition at 10 µM: read-out: Il-6 % Inhibition 10 µM; for inhibition at 30 µM: read-out: Il-6 % Inhibition 30 µM; for IC50: read-out: Il-6 IC50 (µM), IL-1β stimulation, 0.3-30 µM, n = 4
# Description: Primary human lung fibroblasts were cultured in DMEM/F-12 medium (Gibco Waltham, MA, USA) complemented with 10% fetal bovine serum (Gibco), penicillin (50 U/mL, Gibco), streptomycin (50 µg/mL, Gibco), L-glutamine (2 mM, Gibco), non-essential amino acids (0.1 mM, Gibco) and insulin (0.12 U/mL, Lilly, Indianapolis, IN, USA) Cells were used at passage 7.
# [3] = tested on: human pulmonary fibroblasts; experiment: WST-1 cytotoxicity test (cell viability); settings: for cytotoxicity (in words): WST-1, concentrations up to 30 µM; for cytotoxicity at 30 µM (in words): compound at 30 µM
# Description: (§1) A WST1 (Roche) reagent assay was used to determine the cytotoxicity of compounds at 24 h of incubation. […] The absorbance was measured at 450 nm.
# [4] = WST-1 cytotoxicity test (cell viability); settings: human, human pulmonary (lung) fibroblasts
# Description: as §1
# [5] = tested on: Balb/C mice; experiment: OVA-induced asthma model, inflammatory cell recruitment in BAL; assay type: in vivo; settings: vs vehicle-treated OVA mice
# Description: We decided to use this compound in vivo together with our newly synthesized compound 49d.
# Animal experimentation was conducted in accordance with the European Communities Council Directive of 24 November 1986 (86/609/EEC) and the French ministry with the approval of the Regional Ethics Committee for animal research at the Strasbourg University (Authorization number 2015080309399690). Nine week-old male Balb/c mice (Janvier) were sensitized on days 0 and 7 by i.p. injection of ovalbumin (OVA, 50 μg, grade V, Sigma-Aldrich) adsorbed on aluminium hydroxide (2 mg, Sigma-Aldrich) in PBS. Mice were challenged intranasally (i.n.) with OVA (10 μg) in 25 μL of saline on days 18–21. Control mice received i.n. administrations of saline alone. Mice received compound (10 or 30 mg/kg) in saline solution with DMSO 5% or vehicle (saline, DMSO 5%) administered i.p. 2 h before each saline or OVA challenge. Collection of the bronchoalveolar lavage (BAL) fluid was performed 24 h after the last OVA challenge. Cell counts were assessed by flow cytometry (LSRII® cytometer, BD bioscience). BAL cells were added with FCblock (5 μL, 553142, BD bioscience) in a black microplate, incubated for 20 min at room temperature. Then, marker antibodies were added: CD45-AlexaFluor700 (103128, BioLegend, San Diego, CA, USA), CD11b-APC-Cy7 (557657, BD bioscience), CD11c-FITC (557400, BD bioscience, Franklin Lakes, NJ, USA), Gr-1-Pe-eFluor610 (61-5931-82, eBioscience). Antibodies were incubated for 30 min before DAPI (5 μL, BD bioscience) addition, and flow cytometry was performed immediately. Eosinophils were selected by CD45^+, CD11b^+, CD11C^- and GR-1^- gating.
# [6] = 30 mg/kg i.p. 2 h before each OVA challenge
# [7] = 10 mg/kg i.p. 2 h before each OVA challenge
# T1 sequence (O75582 whole entry): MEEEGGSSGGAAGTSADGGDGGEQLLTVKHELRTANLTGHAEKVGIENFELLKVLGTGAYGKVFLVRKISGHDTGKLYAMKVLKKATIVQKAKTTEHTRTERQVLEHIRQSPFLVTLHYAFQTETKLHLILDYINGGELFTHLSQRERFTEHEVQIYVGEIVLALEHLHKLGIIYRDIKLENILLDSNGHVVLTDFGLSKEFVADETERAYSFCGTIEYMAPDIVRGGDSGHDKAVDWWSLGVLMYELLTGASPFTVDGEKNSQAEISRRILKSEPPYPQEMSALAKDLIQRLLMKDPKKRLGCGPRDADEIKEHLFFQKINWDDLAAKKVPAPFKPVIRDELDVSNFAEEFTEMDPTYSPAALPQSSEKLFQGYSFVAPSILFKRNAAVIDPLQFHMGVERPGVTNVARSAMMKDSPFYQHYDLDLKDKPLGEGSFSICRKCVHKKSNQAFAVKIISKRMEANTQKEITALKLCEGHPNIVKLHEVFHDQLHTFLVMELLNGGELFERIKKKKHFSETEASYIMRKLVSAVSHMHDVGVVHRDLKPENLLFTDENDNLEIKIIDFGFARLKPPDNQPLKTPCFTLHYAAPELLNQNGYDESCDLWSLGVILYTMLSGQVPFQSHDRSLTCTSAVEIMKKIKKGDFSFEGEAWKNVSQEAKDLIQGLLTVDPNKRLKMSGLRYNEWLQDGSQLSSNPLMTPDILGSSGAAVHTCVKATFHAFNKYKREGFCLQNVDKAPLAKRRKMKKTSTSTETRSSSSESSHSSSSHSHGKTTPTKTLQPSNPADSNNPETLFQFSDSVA
inhibition at 1 µM [1],inhibition at 10 µM [1],IC50 [1],melting point,SMILES,inhibition at 10 µM [2],cytotoxicity (in words) [3],cytotoxicity at 30 µM (in words) [3],"viability at 24 h, 10 µM [4]","viability at 24 h, 30 µM [4]",inhibition at 30 µM [2],IC50 [2],"decrease of B cells infiltration in BAL [5, 6]","decrease of eosinophil infiltration in BAL [5, 6]","decrease of total cell infiltration in BAL [5, 6]",fold more potent MSK1 inhibitor compared to the parent compound ([1]; versus parent compound 1a),"inhibition of B cell infiltration in BAL [5, 7]","inhibition of eosinophil infiltration in BAL [5, 7]","inhibition of total cell infiltration in BAL [5, 7]"
6 ± 3%,45 ± 9%,5 ± 0.5 µM,,"N=C(N)Nc1cccc(-c2ccccc2F)n1 [Compound 1j, 1-[6-(2-Fluorophenyl)pyridin-2-yl] guanidiniumtrifluoroacetate]",42 ± 4%,cytotoxic,cytotoxic,100 ± 8%,41 ± 9%,,,,,,,,,
0%,38 ± 4%,16.4 ± 4 µM,178 to 179 °C,"Br.NC1=Nc2cccc(-c3ccccc3Cl)c2CN1 [Compound 37f, 5-(2-Chlorophenyl)-3,4-dihydroquinazolin-2-amine Hydrobromide]",17 ± 5%,,cytotoxic,100 ± 8%,41 ± 9%,,,,,,,,,
23 ± 6%,84 ± 4%,0.9 ± 0.1 µM,,"N=C(N)Nc1cccc(-c2cc(Cl)ccc2Cl)n1 [Compound 1q, 1-[6-(2,5-Dichlorophenyl)pyridin-2-yl] guanidiniumtrifluoroacetate]",,cytotoxic,,31 ± 19%,13 ± 1%,,,,,,,,,
72 ± 5%,94 ± 4%,,,"O=C1NCCc2[nH]c(-c3ccncc3)cc21 [PHA767491, reference compound]",97 ± 1%,,,95 ± 9%,87 ± 7%,98 ± 2%,1 ± 0.1 µM,68 ± 7%,57 ± 7%,51 ± 6%,,,,
4 ± 4%,42 ± 9%,17.9 ± 3.9 µM,,"N=C(N)Nc1cccc(-c2ccccc2)n1 [Compound 1a, 1-(6-phenylpyridin-2-yl)guanidine]",17 ± 7%,non-toxic,,122 ± 14%,103 ± 5%,60 ± 4%,16.3 ± 6.1 µM,,,,,,,

SMILES,inhibition at 1 µM [1],inhibition at 10 µM [1],IC50 [1],melting point,inhibition at 10 µM [2],cytotoxicity (in words) [3],cytotoxicity at 30 µM (in words) [3],"viability at 24 h, 10 µM [4]","viability at 24 h, 30 µM [4]",inhibition at 30 µM [2],IC50 [2],"decrease of B cells infiltration in BAL [5, 6]","decrease of eosinophil infiltration in BAL [5, 6]","decrease of total cell infiltration in BAL [5, 6]",fold more potent MSK1 inhibitor compared to the parent compound ([1]; versus parent compound 1a),"inhibition of B cell infiltration in BAL [5, 7]","inhibition of eosinophil infiltration in BAL [5, 7]","inhibition of total cell infiltration in BAL [5, 7]"
"Br.Nc1nc2c(-c3ccccc3Cl)cccc2[nH]1 [Compound 49d, 4-(2-Chlorophenyl)-1H-benzo[d]imidazol-2-amine Hydrobromide]",21 ± 5%,71 ± 7%,1.6 ± 0.1 µM,,39 ± 15%,non-cytotoxic,,85 ± 13%,76 ± 12%,57 ± 2%,,,,,10 fold,47 ± 1%,39 ± 3%,33 ± 3%
